What was measured:
HER2/3 in SkBr-3 cells = assay: HER2 and HER3 level immunoblots; assay type: cell-based, human; conditions: 10 μM for 1-to-24 hours; 1, 3, 10, 20 μM for 12 hours
From the text: FIG. 67, comprising FIGS. 67A-67F, illustrates the finding that Sigma1 ligands may be used to modulate (in this case, decrease) the levels of growth factor receptors such as HER2 and HER3 in breast cancer cells, in the absence of detectable cell death. […] Short exposure to IPAG or lower dosage induces ubiquitin-mediated autophagosomal degradation of HER2/3. Prolonged IPAG treatment or higher dosage caused translational arrest. […] FIG. 67A is a set of immunoblots of HER2 following treatment with IPAG. Detergent soluble whole-cell lysates were solved by denaturing SDS-PAGE. (i) 1-to-24 hour (h) treatment with 10 μM IPAG or 11 μM thapsigargin (TG). (ii) Following 12 hour treatment with 1, 3, 10, 20 μM IPAG. FIG. 67B is a set of immunoblots of HER3 following treatment with IPAG. Detergent soluble whole-cell lysates were solved by denaturing SDS-PAGE. (i) 1-to-24 hour (h) treatment with 10 μM IPAG or 1 μM thapsigargin (TG). (ii) Following 12 hour treatment with 1, 3, 10, 20 μM IPAG. FIG. 67C is a set of immunoblots of detergent soluble whole-cell lysates solved by denaturing SDS-PAGE. […] (iii) Quantification of bands in (i). […] (ii) Quantification of HER3 band in DMSO (vehicle control) treated conditions. (iii) Quantification of HER3 band in IPAG treated conditions.

[1] = test system: MDA-MB-468 breast adenocarcinoma cells; assay: LC3 lipidation (LC3II) immunoblot; assay type: cell-based, human; conditions: 24 hours
Method: Cells were lysed and proteins extracted in a modified RIPA buffer (25 mM Tris-HCl pH 7.6, 150 mM NaCl, 1% NP-40, 1% sodium deoxycholate and 0.1% SDS) supplemented with 10% glycerol (volume/volume), complete protease inhibitor cocktail (Roche), and Halt phosphatase inhibitor cocktail (Pierce). Approximately 10-20 μg of detergent soluble protein were resolved on NOVEX 10-20% polyacrylamide Tris-glycine gels (InVitrogen). Immunoblots were performed in a 20 mM Tris-buffered 137 mM saline solution (pH 7.6) containing 0.1% Tween-20 (polyoxyethylene (20) sorbitan monolaurate) and 5% (weight/volume) blotting grade non-fat dry milk (BioRad). The Lumigen PS-3 enhanced chemiluminescence kit (GE Healthcare) was used to reveal immunoblotted proteins.
Initially, an established immunoblot-based assay to detect microtubule associated protein light chain 3 (LC3) lipidation was used to test for the activation of autophagy. […] Since transient transfections can produce spurious GFP-LC3 aggregates, stable GFP-LC3 transfected populations of MDA-MB-468 (GFP-LC3) were generated. These cells were treated for 24 hours with increasing concentrations of Sigma receptor antagonists and agonists, and were compared to basal and DMSO treated controls (FIGS. 4B & 4C).

[2] = test system: T47D and MDA-MB-468 cells; assay: Cell cycle profile (G1, S, G2 phase cells); assay type: cell-based, human; conditions: 24 hours; IPAG 1 μM (T47D) or 10 μM (MDA-MB-468); (+)-SKF-10047 10 μM
Method: FIG. 30, comprising FIGS. 30A-30B, illustrates that Sigma1 antagonists mediate cell cycle arrest. […] FIG. 30A is a graph illustrating the percentage of G1, S, and G2 phase cells in T47D cells treated for 24 hours with DMSO (vehicle control), 1 μM IPAG (Sigma1 antagonist), or 10 μM (+)SKF-10047 (Sigma1 agonist). FIG. 30 B is a graph illustrating the percentage of G1, S, and G2 phase cells in MDA-MB-468 cells treated for 24 hours with DMSO (vehicle control), 10 μM IPAG (Sigma1 antagonist), or 10 μM (+)-SKF-10047 (Sigma1 agonist).

[3] = test system: MDA-MB-468 breast tumor cells; assay: Akt, S6K and ERK phosphorylation immunoblots; assay type: cell-based, human
Method: FIG. 40, comprising FIGS. 40A-40C, illustrates Sigma1 antagonist modulation of Akt, S6K, and ERK phosphorylation. MDA-MB-468 breast tumor cells were treated for 24 hours with 10 μM IPAG (Sigma1 antagonist) or (+)SKF-10047 (SKF, Sigma1 agonist). Treated cells were harvested and cellular proteins were extracted with a buffer containing 1% Sodium Dodecyl Sulfate (SDS) and deoxycholate (DOC), supplemented with phosphatase and protease inhibitors. FIG. 40A is an image of an immunoblot illustrating Akt phosphorylation. […] Akt phosphorylation at threonine 308 was not altered in any of the samples (not shown). Equivalent loading was confirmed with an anti-GAPDH antibody. FIG. 40B is an image of an immunoblot illustrating phosphorylation. Phosphorylation of mTOR substrate, p70S6K at threonine 389 decreased 3-fold in IPAG, but not SKF treated cells. Total p70S6K was immunoblotted as a loading control. FIG. 40C is an immunoblot illustrating that p44/42 ERK1/2phosphorylation at threonine 202 and tyrosine 204 was abrogated by 24 hour treatment with IPAG. Data shown is representative of two independent experiments.

Sigma1 = Sigma1 (Homo sapiens, UniProt Q99720); conditions: read-out: Ki, affinity for the Sigma1; cited from earlier work
Sequence of Sigma1 (Q99720 whole entry): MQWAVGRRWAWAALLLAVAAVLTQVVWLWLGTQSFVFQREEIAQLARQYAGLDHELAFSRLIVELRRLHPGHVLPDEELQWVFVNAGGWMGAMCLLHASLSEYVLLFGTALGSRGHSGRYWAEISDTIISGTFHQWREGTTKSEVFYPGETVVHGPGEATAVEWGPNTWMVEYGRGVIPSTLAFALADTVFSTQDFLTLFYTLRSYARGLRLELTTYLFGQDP

N=C(Nc1ccc(I)cc1)NC1C2CC3CC(C2)CC1C3 (centres unmarked) [IPAG, 1-(4-iodophenyl)-3-(2-adamantyl)guanidine]
levels of HER2/3 (HER2/3 in SkBr-3 cells): time and dose-dependently causes decreased levels of HER2/3
conversion of LC3 to LC3II (autophagosome formation) ([1]; 10 μM): converted LC3 to LC3II
EC50 ([1]; Homo sapiens, MDA-MB-468, two independent determinations, read-out: mean EC50 of LC3 lipid conjugation (LC3II induction)): 7 µM
cell cycle profile [2]: accumulation of breast adenocarcinoma cells in G1 phase of the cell cycle
decrease of Akt phosphorylation at serine 473 ([3]; 10 μM, 24 hours): 3 fold
decrease of p70S6K phosphorylation at threonine 389 ([3]; 10 μM, 24 hours): 3 fold
p44/42 ERK1/2 phosphorylation at threonine 202 and tyrosine 204 ([3]; 24 hour treatment): abrogated
Ki (Sigma1): 0.005 ± 0.002 µM

— patent US9388126B2, “Sigma receptor ligands and methods of modulating cellular protein homeostasis using same” (Drexel University, priority 2012, dated 2016)
